Assay results as given in patent US20170190705A1, “Compositions and Methods for Inhibiting BMP” (THE BRIGHAM AND WOMAN'S HOSPITAL, INC., priority 2014, published 2017).
Like-named read-outs stand apart in the source and are kept apart here.

Experiments:
BMP6 = experiment: Ligand induced transcriptional activity assay BMP6 (BRE-Luc); format: cell-based
caALK1 = biological target: T1, caALK1 (Homo sapiens, UniProt P37023, Q201D); experiment: Luciferase reporter assay constitutively active ALK1; settings: read-out: Cell Based Assay caALK1 IC50
T1 construct: expressed in transfected cells; host or cells: C2C12 BRE-Luc cells infected with adenovirus (MOI 100)
Procedure: The cells were incubated for 1 h (37° C. and 10% CO2) and allowed to settle and attach. Compounds of interest or DMSO were diluted in DMEM and added at final compound concentrations of 1 nM to 10 μM. Cells were then incubated for 30 min. Adenovirus expressing constitutively active BMP and TGF-β type I receptors (Ad.caALK1-5), generously provided by Dr. Akiko Hata (University of to California at San Francisco), were added to achieve a multiplicity of infection (MOI) of 100. Plates were incubated overnight at 37° C. Cell viability was assayed with an MIT (3-(4,5-dimethylthiazol-2-yl)-2,5-diphenyl tetrazolium bromide) colorimetric assay (Promega) per the manufacturer's instructions. Media was discarded, and firefly luciferase activity was measured (Promega) according to manufacturer's protocol. Light output was measured using a Spectramax L luminometer (Molecular Devices) with an integration time of one second per well. Data was normalized to 100% of incremental BRE-Luc activity due to adenoviruses specifying caALK1, 2, or 3, or the incremental CAGA-Luc activity due to adenoviruses specifying caALK4 or 5.

T1 sequence (P37023 22-503 Q201D): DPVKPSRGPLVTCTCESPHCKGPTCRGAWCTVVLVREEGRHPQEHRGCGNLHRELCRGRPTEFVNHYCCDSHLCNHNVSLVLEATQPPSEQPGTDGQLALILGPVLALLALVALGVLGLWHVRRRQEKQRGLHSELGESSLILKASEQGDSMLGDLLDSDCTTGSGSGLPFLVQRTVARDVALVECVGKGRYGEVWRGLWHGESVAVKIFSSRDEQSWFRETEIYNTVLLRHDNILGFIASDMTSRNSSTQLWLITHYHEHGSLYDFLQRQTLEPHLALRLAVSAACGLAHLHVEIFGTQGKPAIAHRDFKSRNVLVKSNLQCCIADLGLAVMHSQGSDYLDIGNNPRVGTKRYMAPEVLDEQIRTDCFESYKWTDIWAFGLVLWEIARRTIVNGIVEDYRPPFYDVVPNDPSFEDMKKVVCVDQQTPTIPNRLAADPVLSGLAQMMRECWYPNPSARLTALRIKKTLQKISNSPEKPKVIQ

## COc1cc(-c2cc(-c3ccc(N4CCNCC4)cc3)cnc2C)cc(OC)c1OC [Compound 10, 1-(4-(6-methyl-5-(3,4,5-trimethoxyphenyl)pyridin-3-yl)phenyl)piperazine]
BMP6; Table 7, read-out: Ligand Induced BMP6 IC50
  IC50: 67 nM
BMP6; cell-based signaling inhibition, read-out: BMP6 IC50
  IC50: 100 ± 1 nM

## COc1cc(-c2cc(-c3ccc(N4CCNCC4)cc3)cnc2N)cc(OC)c1OC [Compound 15, 5-(4-(piperazin-1-yl)phenyl)-3-(3,4,5-trimethoxyphenyl)pyridin-2-amine]
caALK1
  IC50: 24 nM
